Data taken from the OligoGym collection.
“And” between values parts separate entries of the source, which are not always exact repeats. Identical values can stand only once. After the bases stand the sugars from the 5' end (letter, count) and the backbone: PS all phosphorothioate, else s phosphorothioate and o phosphodiester by linkage. Methylation of C is not given here. e = 2'-O-(2-methoxyethyl) (MOE); k = constrained ethyl (cEt); d = 2'-deoxy (DNA)

Target: SOD1
Conditions: ASO

“ATTCACAGGCTTGAATG (sugars e3 k2 d7 k2 e3, PS)” was tested, and the target mRNA inhibition (HepG2, 3 µM) was 11%.

“ATTGAAACAGACATTTTAAC (sugars e5 d10 e5, PS)” was tested, and the target mRNA inhibition (HepG2, 5 µM) was 0%.

Work on “ATTTCTACAGCTAGCAG (sugars e3 k2 d7 k2 e3, PS)” yielded a target mRNA inhibition (HepG2, 3 µM) of 45%.

Work on “ATTTCTACAGCTAGCAGGAT (sugars e5 d10 e5, PS)” yielded a target mRNA inhibition (HepG2, 4 µM) of 69% and a target mRNA inhibition (HepG2, 12 µM) of 82%.

With “CAAATCTTCCAAGTGAT (sugars e3 k2 d7 k2 e3, PS)” the target mRNA inhibition (HepG2, 3 µM) was 18%.

For “CAAGGGAATGTTTATTG (sugars e3 k2 d7 k2 e3, PS)”, the target mRNA inhibition (HepG2, 3 µM) was 19%.

In the case of “CAAGTTTAATACCCATC (sugars e2 k2 d9 k2 e2, PS)”, the target mRNA inhibition (HepG2, 5 µM) is reported as 62%.

For “CAATTACACCACAAGCC (sugars e3 k2 d7 k2 e3, PS)”, the target mRNA inhibition (HepG2, 3 µM) was 33%.

“CACAGGCTTGAATGACA (sugars e2 k2 d8 k2 e3, PS)” was tested, and the target mRNA inhibition (HepG2, 5 µM) was 34%.

In the case of “CACAGGCTTGAATGACA (sugars e2 k2 d9 k2 e2, PS)”, the target mRNA inhibition (HepG2, 5 µM) is reported as 47%.

With “CACCACAAGCCAAACGA (sugars e2 k2 d9 k2 e2, PS)” the target mRNA inhibition (HepG2, 4 µM) was 46%.

“CACCGTGTTTTCTGGATAGA (sugars e5 d10 e5, PS)” was tested, and the target mRNA inhibition (HepG2, 5 µM) was 24% and 11%.

Work on “CACTACAGGTACTTTAA (sugars e2 k2 d9 k2 e2, PS)” yielded a target mRNA inhibition (HepG2, 5 µM) of 38%.

“CACTTTTAAGATTACAG (sugars e2 k2 d8 k2 e3, PS)” showed a target mRNA inhibition (HepG2, 5 µM) of 37%.

“CAGCTAGCAGGATAACA (sugars e2 k2 d8 k2 e3, PS)” showed a target mRNA inhibition (HepG2, 4 µM) of 71%.

Sequence “CAGCTAGCAGGATAACA (sugars e2 k2 d9 k2 e2, PS)” has a target mRNA inhibition (HepG2, 4 µM) of 61%.

“CAGGATACATTTCTACAGCT (sugars e5 d10 e5, linkages s1 o3 s11 o2 s2)” was tested, and the target mRNA inhibition (A431, 0.062 µM) was 33%, the target mRNA inhibition (A431, 0.185 µM) was 29% and the target mRNA inhibition (A431, 0.556 µM) was 52%. For the same sequence, the target mRNA inhibition (A431, 0.6 µM) was 50%, the target mRNA inhibition (A431, 1.667 µM) was 62% and the target mRNA inhibition (A431, 5 µM) was 74%. It also gave a target mRNA inhibition (A431, 15 µM) of 82%, a target mRNA inhibition (SH-SY5Y, 0.062 µM) of 10% and a target mRNA inhibition (SH-SY5Y, 0.185 µM) of 10%. For the same sequence, the target mRNA inhibition (SH-SY5Y, 0.556 µM) was 33%, the target mRNA inhibition (SH-SY5Y, 1.667 µM) was 61% and the target mRNA inhibition (SH-SY5Y, 5 µM) was 81%. It also gave a target mRNA inhibition (SH-SY5Y, 15 µM) of 92%.

With “CAGTCCTTTAATGCTTCCCC (sugars e5 d10 e5, PS)” the target mRNA inhibition (HepG2, 5 µM) was 51% and 40%.

For “CAGTGTGCGGCCAATGATGC (sugars e5 d10 e5, PS)”, the target mRNA inhibition (HepG2, 5 µM) was 0%.

For “CAGTGTTTAATGTTTA (sugars kekeddddddddekek, linkages s1 o3 s8 o1 s2)”, the target mRNA inhibition (A431, 0.12 µM) was 19%, the target mRNA inhibition (A431, 0.6 µM) was 18% and the target mRNA inhibition (A431, 3 µM) was 36%. For the same sequence, the target mRNA inhibition (A431, 15 µM) was 55%, the target mRNA inhibition (HepG2, 0.222 µM) was 50% and the target mRNA inhibition (HepG2, 0.667 µM) was 67%. For the same sequence, the target mRNA inhibition (HepG2, 2 µM) was 81% and the target mRNA inhibition (HepG2, 6 µM) was 86%.

For “CATAATAAGTGCCATAC (sugars e2 k2 d9 k2 e2, PS)”, the target mRNA inhibition (HepG2, 5 µM) was 34%.

“CATCGGCCACACCATCTTTG (sugars e5 d10 e5, PS)” was tested, and the target mRNA inhibition (HepG2, 5 µM) was 34% and 38%.

Work on “CATCTGTGATTTAAGTC (sugars e2 k2 d9 k2 e2, PS)” yielded a target mRNA inhibition (HepG2, 5 µM) of 48%.

With “CATCTGTGATTTAAGTCTGG (sugars e5 d10 e5, PS)” the target mRNA inhibition (HepG2, 5 µM) was 29%.

Sequence “CATGGAATCCATGCAGG (sugars e3 k2 d7 k2 e3, PS)” has a target mRNA inhibition (HepG2, 3 µM) of 14%.

For “CATGGACCACCAGTGTGCGG (sugars e5 d10 e5, PS)”, the target mRNA inhibition (HepG2, 5 µM) was 25%.

Work on “CATTTCCACCTTTGCCC (sugars e3 k2 d7 k2 e3, PS)” yielded a target mRNA inhibition (HepG2, 3 µM) of 73%.

Sequence “CATTTCTACAGCTAGCA (sugars e3 k2 d7 k2 e3, PS)” has a target mRNA inhibition (HepG2, 3 µM) of 34%.

“CCAAGTGATCATAAATC (sugars e2 k2 d9 k2 e2, PS)” was tested, and the target mRNA inhibition (HepG2, 5 µM) was 48%.

For “CCATACAGGGTTTTTAT (sugars e2 k2 d8 k2 e3, PS)”, the target mRNA inhibition (HepG2, 5 µM) was 13%.

With “CCCAAGTCATCTGCTTT (sugars e3 k2 d7 k2 e3, PS)” the target mRNA inhibition (HepG2, 3 µM) was 72%.

For “CCCATCTGTGATTTAAG (sugars e2 k2 d8 k2 e3, PS)”, the target mRNA inhibition (HepG2, 5 µM) was 49%.

Work on “CCCCACACCTTCACTGG (sugars e3 k2 d7 k2 e3, PS)” yielded a target mRNA inhibition (HepG2, 3 µM) of 14%.

Sequence “CCGAGGACTGCAACGGAAAC (sugars e5 d10 e5, PS)” has a target mRNA inhibition (HepG2, 4 µM) of 29%.

With “CCGCGACTACTTTATAG (sugars e3 k2 d7 k2 e3, PS)” the target mRNA inhibition (HepG2, 3 µM) was 5%.

For “CCGTCGCCCTTCAGCACGCA (sugars e5 d10 e5, PS)”, the target mRNA inhibition (A431, 0.12 µM) was 0% and 5%, the target mRNA inhibition (A431, 0.6 µM) was 7% and 0% and the target mRNA inhibition (A431, 3 µM) was 17% and 0% and 7%. For the same sequence, the target mRNA inhibition (HepG2, 0.1875 µM) was 0% and 3% and the target mRNA inhibition (HepG2, 0.222 µM) was 0% and 14%.

Sequence “CCTCATAATAAGTGCCA (sugars e2 k2 d8 k2 e3, PS)” has a target mRNA inhibition (HepG2, 5 µM) of 29%.

For “CCTCATAATAAGTGCCATAC (sugars e5 d10 e5, PS)”, the target mRNA inhibition (HepG2, 5 µM) was 23%.

“CCTTCTGCTCGAAATTGATG (sugars e5 d10 e5, PS)” was tested, and the target mRNA inhibition (HepG2, 3 µM) was 53%.

With “CCTTTAATGCTTCCCCACAC (sugars e5 d10 e5, PS)” the target mRNA inhibition (HepG2, 4 µM) was 1%.

Sequence “CGACTACTTTATAGGCC (sugars e3 k2 d7 k2 e3, PS)” has a target mRNA inhibition (HepG2, 3 µM) of 12%.

In the case of “CGATCCCAATTACACCA (sugars e2 k2 d8 k2 e3, PS)”, the target mRNA inhibition (HepG2, 4 µM) is reported as 57%.
